Results: ChEMBL document CHEMBL1146551, “Simplified tetrandrine congeners as possible antihypertensive agents with a dual mechanism of action” (J Nat Prod, 2003)

Tests used:
Aorta [1] = experiment: Vasorelaxant activity against KCl-induced contraction in Wistar rat thoracic aorta in presence of calcium; assay type: functional, tissue-based
Aorta [2] = experiment: Vasorelaxant activity against noradrenaline-induced contraction in Wistar rat thoracic aorta in presence of calcium; assay type: functional, tissue-based
[3] = target: T1, Adrenergic receptor alpha-1 (Rattus norvegicus, UniProt P15823+P23944+P43140); experiment: Displacement of [3H]prazosin from alpha1 adrenergic receptor in Wistar rat cerebral cortex membrane; assay type: tissue-based
T1 sequence (P15823 whole entry): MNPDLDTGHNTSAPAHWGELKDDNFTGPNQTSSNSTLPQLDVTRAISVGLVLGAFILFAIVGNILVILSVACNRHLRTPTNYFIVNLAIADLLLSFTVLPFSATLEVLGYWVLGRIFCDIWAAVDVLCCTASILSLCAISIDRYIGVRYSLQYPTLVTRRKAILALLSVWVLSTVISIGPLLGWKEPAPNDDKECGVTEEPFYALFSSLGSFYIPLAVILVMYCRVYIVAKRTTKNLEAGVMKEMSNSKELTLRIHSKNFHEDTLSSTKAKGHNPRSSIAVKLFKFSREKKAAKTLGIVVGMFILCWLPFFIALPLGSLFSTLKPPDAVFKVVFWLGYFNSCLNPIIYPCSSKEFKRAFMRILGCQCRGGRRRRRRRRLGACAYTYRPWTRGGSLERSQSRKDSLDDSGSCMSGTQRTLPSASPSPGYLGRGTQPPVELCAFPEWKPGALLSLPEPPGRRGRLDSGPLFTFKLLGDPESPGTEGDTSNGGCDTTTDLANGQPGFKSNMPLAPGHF
T1 sequence (P23944 whole entry): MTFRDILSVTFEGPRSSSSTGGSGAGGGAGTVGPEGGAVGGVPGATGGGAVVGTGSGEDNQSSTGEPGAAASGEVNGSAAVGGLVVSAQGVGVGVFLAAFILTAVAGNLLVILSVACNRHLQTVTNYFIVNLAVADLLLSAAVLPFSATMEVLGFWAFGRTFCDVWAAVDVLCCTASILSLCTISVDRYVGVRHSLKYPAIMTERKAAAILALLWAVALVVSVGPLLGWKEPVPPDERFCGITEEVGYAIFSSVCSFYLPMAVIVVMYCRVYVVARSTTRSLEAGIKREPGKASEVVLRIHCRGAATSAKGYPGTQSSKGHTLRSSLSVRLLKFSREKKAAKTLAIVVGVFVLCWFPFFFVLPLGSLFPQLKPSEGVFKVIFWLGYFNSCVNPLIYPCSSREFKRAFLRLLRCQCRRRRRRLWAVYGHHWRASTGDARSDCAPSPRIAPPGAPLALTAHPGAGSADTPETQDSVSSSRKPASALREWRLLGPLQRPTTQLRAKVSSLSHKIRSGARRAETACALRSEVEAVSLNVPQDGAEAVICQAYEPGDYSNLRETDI
T1 sequence (P43140 whole entry): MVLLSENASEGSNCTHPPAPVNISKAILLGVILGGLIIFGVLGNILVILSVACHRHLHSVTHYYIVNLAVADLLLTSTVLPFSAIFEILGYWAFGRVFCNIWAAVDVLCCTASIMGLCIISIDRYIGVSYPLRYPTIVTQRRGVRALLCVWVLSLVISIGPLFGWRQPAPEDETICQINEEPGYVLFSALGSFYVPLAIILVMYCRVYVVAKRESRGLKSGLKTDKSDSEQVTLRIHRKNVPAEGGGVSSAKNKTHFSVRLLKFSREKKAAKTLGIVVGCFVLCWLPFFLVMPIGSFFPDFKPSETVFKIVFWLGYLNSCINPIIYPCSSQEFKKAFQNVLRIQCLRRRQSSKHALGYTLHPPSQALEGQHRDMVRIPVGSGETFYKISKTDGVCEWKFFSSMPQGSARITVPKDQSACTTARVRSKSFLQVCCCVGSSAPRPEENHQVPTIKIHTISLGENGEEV

[4] = target: Voltage-gated L-type calcium channel (Rattus norvegicus, UniProt P22002+Q02485+P27732); experiment: Displacement of [3H]diltiazem from benzothiazepine binding site of L-type calcium channel in Wistar rat cerebral cortex membrane
Aorta [5] = experiment: Vasorelaxant activity against KCl-induced contraction in Wistar rat thoracic aorta at 100 uM in presence of calcium; assay type: functional; design: scale not given: the % may be the effect or the level left

SMILES	IC50 (Aorta [1]) [µM]	IC50 (Aorta [2]) [µM]	pKi [3]	pKi [4]	Activity ([4]; rat) [%]	Activity (Aorta [5]) [%]
COc1ccc(CC2c3cc(OCc4ccccc4)c(OC)cc3CCN2C)cc1 (racemic)	11.5	4.27	5.73	5.82	–	–
COc1ccc2cc1Oc1ccc(cc1)C[C@H]1c3cc(c(OC)cc3CCN1C)Oc1c(OC)c(OC)cc3c1[C@H](C2)N(C)CC3 [FANCHININ]	13.5	29.5	6.16	6.13	–	–
COc1cc2c(cc1O)C(Cc1ccc(OCc3ccccc3)cc1)NCC2 (racemic)	13.8	16.2	5.69	5.57	–	–
COc1cc2c(cc1OCc1ccccc1)C(Cc1ccc(O)cc1)N(C)CC2 (racemic)	5.75	8.71	5.49	5.7	–	–
COc1ccc(CC2NCCc3cc(OC)c(OCc4ccccc4)cc32)cc1 (racemic)	–	–	5.34	–	–	–
COc1cc2c(cc1OCc1ccccc1)C(Cc1ccc(OCc3ccccc3)cc1)NCC2 (racemic)	–	–	5.02	4.61	–	–
CCCN1CCc2cc(OC)c(OCc3ccccc3)cc2C1Cc1ccc(OCc2ccccc2)cc1 (racemic)	–	–	5.05	5.75	–	–
COc1cc2c(cc1OCc1ccccc1)C(Cc1ccc(O)cc1)NCC2 (racemic)	7.59	13.2	5.49	5.6	–	–
COc1ccc(CC2c3cc(O)c(OC)cc3CCN2C)cc1 (racemic)	72.4	25.1	5.29	4.9	–	–
COc1cc2c(cc1O)C(Cc1ccc(O)cc1)NCC2 (racemic) [COCLAURINE]	–	17.4	5.97	–	30	17.2
COc1cc2c(cc1OCc1ccccc1)C(Cc1ccc(OCc3ccccc3)cc1)N(C)CC2 (racemic)	–	–	5.12	5.74	–	–
COc1ccc(CC2NCCc3cc(OC)c(O)cc32)cc1 (racemic)	–	–	4.92	4.49	–	–

The next lines start with results.

IC50 (Aorta [1]) [µM]	IC50 (Aorta [2]) [µM]	pKi [3]	pKi [4]	SMILES	Activity ([4]; rat) [%]	Activity (Aorta [5]) [%]
115	209	5.14	5.02	COc1cc2c(cc1OC)C(Cc1ccc(O)cc1)N(C)CC2 (racemic)	–	–
67.6	24.5	5.63	4.64	COc1cc2c(cc1O)C(Cc1ccc(O)cc1)N(C)CC2 (racemic) [METHYL COCLAURINE]	–	–
–	–	5.23	–	COc1cc2c(cc1OC)C(Cc1ccc(O)cc1)NCC2 (racemic)	–	–
14.8	66.1	5.1	5.38	COc1ccc(CC2c3cc(OC)c(OC)cc3CCN2C)cc1 (racemic)	–	–
–	–	5.07	4.51	CCN1CCc2cc(OC)c(OC)cc2C1Cc1ccc(O)cc1 (racemic)	–	–
–	–	5.29	4.86	CCN1CCc2cc(OC)c(O)cc2C1Cc1ccc(O)cc1 (racemic)	–	–
